# According to patent US11938129B2, “Methods and compositions for the treatment of vascular disease” (THE GENERAL HOSPITAL CORPORATION, priority 2018, dated 2024):
# “Also recorded” adds a separate entry of the source.
# Tests used:
# Mmp9 = assay: immunofluorescence of Mmp9 in ligated carotid; type: in vivo, mouse; details: arterial media and intima of carotid arteries
# Description: (§1) All mice used in this study were cared for under strict compliance with the Partners Institutional Animal Care and Use Committee (IACUC), regulated by the United States Public Health Service (USPHS). Carotid ligations were performed in 10 week old mice. Briefly, animals were anesthetized using intraperitoneal ketamine/xylazine (80 and 12 mg/kg, respectively) followed by a small incision in the neck to expose the carotid artery. Then the left carotid was ligated at the carotid bifurcation level using a 8-0 silk suture. At 21 days mice were sacrificed and carotids were collected for histological analysis. Approximately 98% of wild type mice developed stenotic lesions. Mice that developed thrombosis of the ligated carotid were excluded from the study (−1¬2%). Malatl knockout mice were kindly provided by Dr. David Spector (Cold Spring Harbor, N.Y.). Hdac9 flox/flox/Talgn-cre mice were generated as previously reported (10). […]
# (§2) Left and right carotids were cryosectioned using OCT standard protocol and sectioning. […] Slides 1, 5, 10, and 15 were H&E stained for quantification of neointima. For quantification of the neointima, internal and external elastic lamina perimeters and medial thickness from 4 quadrants were measured and averaged using Image J software from the National Institutes of Health (NIH). […]
# SM22a = assay: immunostaining of SM22a protein in aortas of treated Fbn1C1039G/+ mice; type: in vivo, mouse; details: compared to control Fbn1C1039G/+ mice
# Description: Latex was injected into the left ventricular apex under low pressure until it was visible in the femoral artery. Animals were then fixed in Formalin (10%) for 24 hours before transfer to 70% ethanol for dissection and storage. Aortas were then removed from the animals or dissected in situ for photography prior to paraffinization and sectioning (10 pM). Slides were produced for tissue staining or stained with standard stains including H&E staining, collagen deposition (Trichrome Stain (Masson) Kit, Sigma, USA), elastin (Verhoeff-Van Gieson, Thermo Scientific, MI, USA) or F-actin (ActinGreen™ 488 ReadyProbes, ThermoFisher Scientific, USA) for quantitative analysis. Elastin integrity score was rated by blinded observers and graded on an arbitrary scale of 5 (indicating high quality elastic fiber) to 1 (indicating severe elastin fragmentation). For nuclear staining aortas from human and mice were cryosectioned using OCT standard protocol as described previously (Fischer et al., 2008). Cohorts of 8-week-old wild-type or Fbn1cw3gGi+ mice were treated with oral administration in drinking water of either Losartan or GSK343 for 20 weeks (FIG. 5). […] Then 200 mL of drinking water was supplemented with 250 pL of GSK343 stock solution. […] Aortic dimensions were monitored monthly by echocardiograms as mentioned above.
# [1] = tested on: neointimal formation in ligated carotid; assay: murine carotid artery ligation model: neointimal formation and stenosis (histology); type: in vivo, mouse; details: wild-type mice, left carotid ligation, 21 days; GSK343 in drinking water from 24 hrs before ligation for 3 weeks; GapmeR 15 nmol 24 hrs before and 7 days post-ligation
# Description: as §1, §2
# [2] = tested on: other histone methyltransferases; details: cited from earlier work
# FAK = assay: immunofluorescence of p-FAK in ligated carotid; type: in vivo, mouse; details: media and intima of carotid arteries
# Description: as §1, §2
# a-SMA and SM22a = assay: immunofluorescence of contractile proteins in ligated carotids; type: in vivo, mouse
# Description: All mice used in this study were cared for under strict compliance with the Partners Institutional Animal Care and Use Committee (IACUC), regulated by the United States Public Health Service (USPHS). Carotid ligations were performed in 10 week old mice. Briefly, animals were anesthetized using intraperitoneal ketamine/xylazine (80 and 12 mg/kg, respectively) followed by a small incision in the neck to expose the carotid artery. Then the left carotid was ligated at the carotid bifurcation level using a 8-0 silk suture. At 21 days mice were sacrificed and carotids were collected for histological analysis. Approximately 98% of wild type mice developed stenotic lesions. Mice that developed thrombosis of the ligated carotid were excluded from the study (−1¬2%). Malatl knockout mice were kindly provided by Dr. David Spector (Cold Spring Harbor, N.Y.). Hdac9 flox/flox/Talgn-cre mice were generated as previously reported (10). Ezh2 fl/fl/ (STOCK Ezh2tm2Sho/J) and Myh11-cre-GFP (B6.Cg-Tg(Myh11-cre,-EGFP)2Mik/J) were crossed to generate smooth muscle cell-Ezh2 deficient mice. All above mice and wild-type mice (C57BL/6J) were purchased from Jackson laboratory. For tissue analysis, animals were euthanized through inhalational isoflurane (Sigma, St, Louis, Mo.) prior to tissue collection. All carotid ligation (left carotid) procedures were performed at 10 weeks of age. All experiments were performed on male and female animals at a 1:1 ratio.
# Left and right carotids were cryosectioned using OCT standard protocol and sectioning. The right carotid artery was unligated and served as an internal control. Neoinitima analysis was performed from hematoxylin and eosin (H & E) stained horizontal cross-sections embedded in Optimal Cutting Temperature compound (OCT). Briefly, the distal 0.2 mm of carotid from the ligation suture site were discarded followed by generation of 20 slides (10 pM). Slides 1, 5, 10, and 15 were H&E stained for quantification of neointima. For quantification of the neointima, internal and external elastic lamina perimeters and medial thickness from 4 quadrants were measured and averaged using Image J software from the National Institutes of Health (NIH). Slides 2-4, 6-9, and 11-14 were used for immunofluorescence staining.
# Cohorts of 10-week-old wild-type mice were treated with oral administration in drinking water of GSK343 24 hrs before left carotid ligation and following treatment for 3 weeks. GSK343 inhibitor (25 mg) was dissolved in 1 mL of DMSO to obtain a stock solution of 46 mM. Then, 250 ml of drinking water was supplemented with 250 pl of GSK343 stock solution. Control group for was given with equal volumes of sterile water. Bottles containing GSK343 were replaced with fresh water supplied with drug every 3 days. […]
# MMP2 and MMP9 activity = assay: in vivo MMP activity (MMPSense 750 FAST) after carotid ligation; set-up: species or system mouse; details: 24 h post injection, ligated mice
# Description: Mice were tail vein injected with 600 uL of MMPSense 750 FAST, a near-infrared fluorescence sensor for MMP2 and MMP9 activity, (PerkinElmer, USA). Mice were sacrificed 24 h post injection and aortas were dissected and analyzed using a Kodak image station 4000MM Pro for macroscopic fluorescence reflectance molecular imaging.
# Cohorts of 10-week-old wild-type mice were treated with oral administration in drinking water of GSK343 24 hrs before left carotid ligation and following treatment for 3 weeks. GSK343 inhibitor (25 mg) was dissolved in 1 mL of DMSO to obtain a stock solution of 46 mM. Then, 250 ml of drinking water was supplemented with 250 pl of GSK343 stock solution. Control group for was given with equal volumes of sterile water. Bottles containing GSK343 were replaced with fresh water supplied with drug every 3 days. For Malatl antisense LNA treatments, cohorts of 10-week-old wild-type mice were injected with 15 nmol in saline solution 24 hrs before left carotid ligation following by a second injection 7 days post-ligation.
# [3] = tested on: SM22a expression in TAA VSMCs; assay: in vitro GSK343 treatment of isolated TAA VSMCs, SM22a immunoblotting after TGF-β1; type: cell-based, human; details: GSK343, TGF-β1 10 ng/mL
# Description: Primary human aortic smooth muscle cells (HAoSMC) from healthy donors were purchased from Cell Applications Inc., California, USA (Cat. #354K-05a). Primary aneurysm aortic SMCs were isolated from fresh TAA tissue at the moment of surgery by standard explant of the aortic media. Mouse aortic SMCs were isolated by standard explant of the ascending section of the aortas from wild-type or Fbn1ci°39G1+ mice. Smooth muscle cell identity was assessed by immunofluorescence staining of contractile markers including SM22a, Calponin, Smoothelin and Vinculin. In order to preserve cell identity all experiments were carried out at passages 1-5 (Timraz et al., 2016). Human and murine SMCs were grown with smooth muscle cell growth medium from Cell Applications Inc. (Cat. #311-500). VSMCs at 60-70% confluence were supplemented with opti-MEM 24 hrs before treatment with complete growing media containing GSK343 at a concentration of […] for 4 days. Fresh media containing GSK343 was supplied daily. For GSK343/TGF81 (10 ng/mL) combo treatment, cells were first treated with complete media containing GSK343 at concentration of 10 nM during the 2 first days followed by GSK343/TGFβ combination treatment the next 2 days. Prior to cellular collection cells were washed with sterile PBS and RNA or protein extraction were performed as described above.
compound,measurement,setting,value
CCCc1cc(C)[nH]c(=O)c1CNC(=O)c1cc(-c2ccnc(N3CCN(C)CC3)c2)cc2c1cnn2C(C)C [GSK343],accumulation of Mmp9,Mmp9,decreased accumulation
same,SM22a protein expression (immunostaining of aortas),SM22a,recovery of SM22a protein expression
same,extent of the stenotic response / neointimal formation,[1],significant inhibition of neointimal formation; also recorded: dramatically improved the extent of the stenotic response
same,selectivity against other histone methyltransferases,[2],≥ 1000 fold
same,phosphorylation of FAK,FAK,dramatic reduction
same,expression of α-SMA in carotid VSMCs,"a-SMA and SM22a; ligated carotid, in contrast to carotid VSMCs in wild type animals",robust expression
same,expression of contractile proteins such as a-SMA and SM22a,a-SMA and SM22a; ligated carotids of treated mice,improved the expression of contractile proteins
same,activity of MMPs,MMP2 and MMP9 activity,Inhibition of Mmp activity; also recorded: inhibited the activity of MMPs
same,SM22a expression after stimulation with recombinant TGF-β1,[3],recovered the ability to induce SM22a expression
